# From patent US6610883B1, “Compounds having selective activity for retinoid X receptors, and means for modulation of processes mediated by retinoid X receptors” (Ligand Pharmaceuticals, Inc., priority 1992, dated 2003)
# Read-outs that look alike come from different tables or passages of the source.
# Columns and labels:
# Assay type in all cases: cell-based
# RARβ = molecular target: T1, RARβ (Homo sapiens, UniProt P10826); assay: Co-transfection (cis-trans) assay in CV-1 cells, RARβ; set-up: expressed in transfected cells; host or cells: CV-1 (monkey kidney); conditions: for Emax at 10 µM: CV-1, maximal response relative to all-trans-retinoic acid at 10^−5 M, read-out: Efficacy; for EC50: CV-1 cells, luciferase reporter, 36 h, read-out: Potency
# T1 sequence (P10826 1-455): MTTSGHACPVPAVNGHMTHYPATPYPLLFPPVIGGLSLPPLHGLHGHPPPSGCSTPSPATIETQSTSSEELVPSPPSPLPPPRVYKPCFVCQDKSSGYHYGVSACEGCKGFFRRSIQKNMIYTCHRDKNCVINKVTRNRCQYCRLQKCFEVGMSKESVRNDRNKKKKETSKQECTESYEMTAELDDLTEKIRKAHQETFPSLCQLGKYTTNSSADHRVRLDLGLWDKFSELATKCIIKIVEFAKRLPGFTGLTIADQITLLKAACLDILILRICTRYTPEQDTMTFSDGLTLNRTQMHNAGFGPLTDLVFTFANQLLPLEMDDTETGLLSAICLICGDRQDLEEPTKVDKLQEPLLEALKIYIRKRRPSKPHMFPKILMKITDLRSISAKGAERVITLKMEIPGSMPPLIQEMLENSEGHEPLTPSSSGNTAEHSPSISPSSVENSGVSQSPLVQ
# From the text: (§1) The co-transfection assay provides a mechanism to evaluate the ability of a compound to modulate the transcription response initiated by an intracellular receptor. […] Berger, et al., J. Steroid Biochem Molec.
# (§2) Briefly, the co-transfection assay involves the introduction of two plasmids by transient transfection into a retinoid receptor-negative mammalian cell background. The first plasmid contains a retinoid receptor cDNA and directs constitutive expression of the encoded receptor. The second plasmid contains a cDNA that encodes for a readily quantifiable protein, e.g., firefly luciferase or chloramphenicol acetyl transferase (CAT), under control of a promoter containing a retinoid acid response element, which confers retinoid dependence on the transcription of the reporter. In this co-transfection assay, all retinoid receptors respond to all-trans-retinoic acid in a similar fashion. This assay can be used to accurately measure efficacy and potency of retinoic acid and synthetic retinoids as ligands that interact with the individual retinoid receptor subtypes.
# (§3) Accordingly, synthetic retinoid compounds of the current invention were evaluated for their interaction with retinoid receptor subtypes using the co-transfection assay in which CV-1 cells were co-transfected with one of the retinoid receptor subtypes, a reporter construct, and an internal control to allow normalization of the response for transfection efficiency. The following example is illustrative.
# (§4) Retinoids: All-tans-retinoic acid (RA) and 13-cis-retinoic acid (13-cis-RA) were obtained from Sigma. […] Retinoids were dissolved in dimethylsulfoxide for use in the transcriptional activation assays.
# (§5) Co-transfection Assay In CV-1 Cells: A monkey kidney cell line, CV-1, was used in the cis-trans assay. Cells were transfected with two plasmids. […] The cis-vector contains an easily assayable gene product, in this case the firefly luciferase, coupled to a retinoid-responsive promoter, i.e., an RARE or RXRE. Addition of retinoic acid or an appropriate synthetic retinoid results in the formation of a retinoid-RAR or -RXR complex that activates the expression of luciferase gene, causing light to be emitted from cell extracts. The level of luciferase activity is directly proportional to the effectiveness of the retinoid-receptor complex in activating gene expression. This sensitive and reproducible co-transfection approach permits the identification of retinoids that interact with the different receptor isoforms.
# (§6) Cells were cultured in DMEM supplemented with 10% charcoal resin-stripped fetal bovine serum, and experiments were conducted in 96-well plates. […] Cells were transfected for 6 h and then washed to remove the precipitate. The cells were then incubated for 36 h with or without retinoid. After the transfection, all subsequent steps were performed on a Beckman Biomek Automated Workstation. […] All determinations were performed in triplicate in two independent experiments and were normalized for transfection efficiency by using β-galactosidase as the internal control. […] Efficacy values less than 5% are not statistically different than the 0% background.
# RXRβ = molecular target: T2, RXRβ (Mus musculus, UniProt P28704); assay: Co-transfection (cis-trans) assay in CV-1 cells, RXRβ; conditions: for Emax at 10 µM: CV-1, maximal response relative to all-trans-retinoic acid at 10^−5 M, read-out: Efficacy
# T2 construct: expressed in transfected cells; host or cells: CV-1 (monkey kidney)
# T2 sequence (P28704 1-520): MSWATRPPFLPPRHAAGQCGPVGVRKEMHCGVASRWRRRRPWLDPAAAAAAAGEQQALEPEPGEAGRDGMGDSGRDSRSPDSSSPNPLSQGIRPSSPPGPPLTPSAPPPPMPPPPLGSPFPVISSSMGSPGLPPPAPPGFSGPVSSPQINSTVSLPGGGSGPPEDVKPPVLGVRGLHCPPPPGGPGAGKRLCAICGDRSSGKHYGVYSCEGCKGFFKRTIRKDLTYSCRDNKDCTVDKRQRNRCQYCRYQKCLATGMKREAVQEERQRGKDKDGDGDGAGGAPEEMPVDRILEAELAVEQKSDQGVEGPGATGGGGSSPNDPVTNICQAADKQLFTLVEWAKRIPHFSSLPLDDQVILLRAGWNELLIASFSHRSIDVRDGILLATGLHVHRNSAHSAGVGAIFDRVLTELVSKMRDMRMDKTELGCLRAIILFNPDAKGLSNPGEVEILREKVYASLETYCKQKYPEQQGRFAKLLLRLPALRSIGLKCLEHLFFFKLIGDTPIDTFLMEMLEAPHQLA
# From the text: as §1, §2, §3, §4, §5, §6
# RARγ = molecular target: T3, RARγ (Homo sapiens, UniProt P13631); assay: Co-transfection (cis-trans) assay in CV-1 cells, RARγ; set-up: expressed in transfected cells; host or cells: CV-1 (monkey kidney); conditions: for Emax at 10 µM: CV-1, maximal response relative to all-trans-retinoic acid at 10^−5 M, read-out: Efficacy; for EC50: CV-1 cells, luciferase reporter, 36 h, read-out: Potency
# T3 sequence (P13631 1-454): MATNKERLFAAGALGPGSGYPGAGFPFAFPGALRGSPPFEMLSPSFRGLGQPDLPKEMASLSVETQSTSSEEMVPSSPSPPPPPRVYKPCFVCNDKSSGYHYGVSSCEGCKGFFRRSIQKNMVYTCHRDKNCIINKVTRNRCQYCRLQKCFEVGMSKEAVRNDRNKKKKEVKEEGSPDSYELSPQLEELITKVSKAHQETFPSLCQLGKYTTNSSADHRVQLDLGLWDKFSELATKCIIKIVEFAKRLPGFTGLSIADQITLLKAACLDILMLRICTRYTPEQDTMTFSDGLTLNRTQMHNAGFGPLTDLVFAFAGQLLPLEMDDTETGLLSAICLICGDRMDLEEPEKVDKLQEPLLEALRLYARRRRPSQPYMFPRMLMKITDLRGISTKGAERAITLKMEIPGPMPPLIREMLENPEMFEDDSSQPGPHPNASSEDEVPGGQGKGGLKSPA
# From the text: as §1, §2, §3, §4, §5, §6
# [1] = RXRβ, CV-1 cells, luciferase reporter, 36 h, read-out: Potency
Structure (SMILES),Emax at 10 µM (RARβ) [%],EC50 (RARβ) [nM],Emax at 10 µM (RXRβ; RXRβ) [%],EC50 (RXRβ; [1]) [nM],Emax at 10 µM (RARγ) [%],EC50 (RARγ) [nM],EC50 (RXRβ) [nM]
"CC(/C=C/C1(c2cc3c(cc2C)C(C)(C)CCC3(C)C)CC1)=C\C(=O)O [Compound 104, (2E,4E)-3-methyl-5-[1-(3,5,5,8,8-pentamethyl-5,6,7,8-tetrahydro-2-naphthyl)cyclopropyl]penta-2,4-dienoic acid]",5,> 10000,133,13,28,144,
"C=C(c1ccc(C(=O)O)cc1)c1cc2c(cc1Br)C(C)(C)CCC2(C)C [3-Bromo-TTNEB, 4-[1-(3-bromo-5,5,8,8-tetramethyl-5,6,7,8-tetrahydro-2-naphthyl)ethenyl]benzoic acid]",18,,,,15,,54
"CC1=C(/C=C/C(=C\C=C\C(C)=C\C(=O)O)C(C)C)C(C)(C)CCC1 [Compound 75, 3-methyl-7-isopropyl-9-(2,6,6-trimethyl-1-cyclohexen-1-yl)-2E,4E,6Z,8E-nonatetranoic acid]",58,180,142,18,119,150,
"C/C(=C/C=C/C(C)=C/C(=O)O)c1cc2c(cc1C)C(C)(C)CCC2(C)C [Compound 128, (2E,4E,6Z)-7-(3,5,5,8,8-pentamethyl-5,6,7,8-tetrahydro-2-naphthyl)-3-methyl-octa-2,4,6-trienoic acid]",40,180,154,22,37,309,
CC1=C(/C=C/C2(C/C=C/C(C)=C/C(=O)O)CC2)C(C)(C)CCC1 [Compound 110],29,446,73,70,37,1770,
"CC(/C=C/C=C(\c1ccc2c(c1)C(C)(C)CCC2(C)C)C(C)C)=C\C(=O)O [Compound 123, (2E,4E,6Z)-7-(5,5,8,8-tetramethyl-5,6,7,8-tetrahydro-2-naphthyl)-3,8-dimethyl-nona-2,4,6-trienoic acid]",55,75,105,21,49,283,
"CC1=C(/C=C/C(=C\C=C\C(C)=C\C(=O)O)C(C)(C)C)C(C)(C)CCC1 [Compound 77, 3-methyl-7-t-butyl-9-(2,6,6-trimethyl-1-cyclohexen-1-yl)-2E,4E,6Z,8E-nonatetranoic acid]",63,140,99,11,44,170,
"CCCC(=C/C=C/C(C)=C/C(=O)O)/C=C/C1=C(C)CCCC1(C)C [Compound 74, 3-methyl-7-propyl-9-(2,6,6-trimethyl-1-cyclohexen-1-yl)-2E,4E,6Z,8E-nonatetranoic acid]",50,38,91,6,61,37,
"C=C(c1ccc(C(=O)Nc2ccc(O)cc2)cc1)c1cc2c(cc1C)C(C)(C)CCC2(C)C [3-Methyl-TTNEHBP (63), 4-[1-(3,5,5,8,8-pentamethyl-5,6,7,8-tetrahydro-2-naphthyl)ethenyl]-N-(4-hydroxyphenyl)benzamide]",25,1900,121,71,10,> 10000,
"CC1=C(C=CC2CCCCC2/C=C/C(C)=C/C(=O)O)C(C)(C)CCC1 (stereo not drawn) [Compound 100, 3-methyl-5-(2-[2-(2,6,6-trimethylcyclohexen-1-yl)ethenyl]cyclohexyl)-2E,4E-pentadienoic acid]",5,> 10000,54,71,4,> 10000,
"Cc1cc2c(cc1C(=O)c1ccc(C(=O)Nc3ccc(O)cc3)cc1)C(C)(C)CCC2(C)C [3-Methyl-TTNCHBP, 4-[(3,5,5,8,8-pentamethyl-5,6,7,8-tetrahydro-2-naphthyl)carbonyl]-N-(4-hydroxyphenyl)benzamide]",7,> 10000,155,1100,17,> 10000,
